# Reference: patent US11655239B2 (SHANGHAI INSTITUTE OF MATERIAL MEDICA, CHINESE ACADEMY OF …, priority 2019, dated 2023)
# Molecular target: DDR2 (Homo sapiens (Human), UniProt Q16832)
# Experiment: DDR2 enzyme activity test (ELISA)
# Format: biochemical
# Conditions: Table 3, chiral synthesis vs resolution; read-out: Molecular activity comparison (inhibitory activity against DDR2 enzyme)
# Procedure: The optical rotation and the inhibitory activity against DDR2 enzyme of the compounds S11-A and S11-B obtained by the resolution in Example 12, and the chirally synthesized compounds S11-A′ and S11-B′ in Example 13 were tested (referred to the operation in Effect example 1), and the results are shown in Table 3 below:
# Detection method: Enzyme-linked immunosorbent assay (ELISA)
# Test receptor tyrosine kinase: DDR2
# The kinase used in the experiment was obtained by our laboratory using the insect baculovirus expression system to express and purify the recombinant protein containing the protein kinase region; polyglutamic acid-tyrosine peptide segment [Poly(Glu, Tyr) 4:1] and sodium vanadate were purchased from Sigma; the anti-phosphorylated monoclonal antibody PY99 was purchased from Santa Cruz; horseradish peroxidase labeled goat anti-murine secondary antibody was purchased from Calbiochem; ATP and OPD were purchased from Sangon Biotech (Shanghai) Co., Ltd.; the remaining reagents were purchased from Sinopharm Chemical Reagent Co., Ltd. The reaction ELISA plate (#2592) was purchased from Corning. The full-wavelength microplate reader for experiment reading was a product of Molecular Device, model: SpectraMax 190; the experimental water was distilled water produced by Sinopharm Group.
# The compound was centrifuged at 12,000 g for 5 min, and DMSO was added to prepare a 10^-2M stock solution, which was vortexed evenly, then sonicated for 10 min and stored at −40° C. for later use. During the test, the compound was diluted with DMSO from the stock solution to 100 times the test concentration (the DMSO concentration in the system was 1%).
# 1) Enzyme reaction substrate Poly(Glu, Tyr) 4:1 was diluted to 20 μg/mL with potassium-free PBS (10 mM sodium phosphate buffer, 150 mM NaCl, pH 7.2-7.4), and the microtiter plate was coated with 125 μL/well and placed at 37° C. for 12-16 hours of reaction. The liquid in the well was discard. The plate was washed three times with T-PBS (potassium-free PBS containing 0.1% Tween-20, 200 μL/well), 5 minutes each time. The ELISA plate was dried in an oven at 37° C. for 1 to 2 hours.
# 2) Reaction buffer (50 mM HEPES pH 7.4, 50 mM MgCl2, 0.5 mM MnCl2, 0.2 mM Na3VO4, 1 mM DTT) diluted ATP solution (49 μL) was added to each well, 1 μL of the compound to be tested was added to each well, and then 50 μL of DDR2 kinase domain recombinant protein diluted in the reaction buffer was added to start the reaction. Two control wells without ATP were set in each experiment. The plate placed on a shaker (100 rpm) at 37° C. for 1 hour of reaction. The liquid in the well was discarded and the plate was washed three times with T-PBS.
# 3) Antibody PY99 dilution solution (the antibody was diluted 1:500 with T-PBS containing BSA 5 mg/mL) was added at 100 μL/well, and shaken on a shaker at 37° C. for 0.5 hour of reaction. The liquid in the well was discarded and the plate was washed three times with T-PBS.
# 4) Horseradish peroxidase labeled goat anti-murine secondary antibody dilution solution (the antibody is diluted 1:2000 with T-PBS containing BSA 5 mg/ml) was added at 100 μL/well, and shaken on a shaker at 37° C. for 0.5 hour of reaction. The liquid in the well was discarded and the plate was washed three times with T-PBS.
# 5) 2 mg/ml of OPD color developing solution [diluted with 0.1 M citric acid-sodium citrate buffer (pH=5.4) containing 0.03% H2O2] was added at 100 μL/well and reacted for 1 to 10 minutes at 25° C. in the dark.
# 6) 2M H2SO4 was added at 50 μL/well to stop the reaction, and a tunable wavelength microplate reader VERSAmax was used for reading at a wavelength of 490 nm.
# The IC50 value was obtained by four-parameter regression using the software that came with the microplate reader.
# Chain of DDR2 (Q16832 563-849): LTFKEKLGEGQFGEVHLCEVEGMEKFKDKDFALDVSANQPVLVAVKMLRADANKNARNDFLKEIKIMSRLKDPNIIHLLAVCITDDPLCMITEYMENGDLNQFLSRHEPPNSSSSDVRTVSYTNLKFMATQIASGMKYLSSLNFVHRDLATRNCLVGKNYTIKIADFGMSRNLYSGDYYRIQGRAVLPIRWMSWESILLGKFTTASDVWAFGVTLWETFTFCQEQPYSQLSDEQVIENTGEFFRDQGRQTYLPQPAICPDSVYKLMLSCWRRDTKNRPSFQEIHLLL
row,IC50,Compound
1,5 ± 0.1 nM,Cc1ccc([C@H](C)NC(=O)c2cccc(C(F)(F)F)c2)cc1-c1ccc2nc(Nc3cnn(C4CC4)c3)ncc2c1 [Compound S11-A]
2,14.4 ± 2.1 nM,Cc1ccc([C@@H](C)NC(=O)c2cccc(C(F)(F)F)c2)cc1-c1ccc2nc(Nc3cnn(C4CC4)c3)ncc2c1 [Compound S11-B]

# Same assay, conditions: read-out: DDR2 IC50
row,Compound,IC50
1,"Cc1ccc(NC(=O)Nc2cccc(C(F)(F)F)c2)cc1-c1ccc2nc(Nc3cnn(C)c3)ncc2c1 [Compound S1, 1-(4-methyl-3-(2-((1-methyl-1H-pyrazol-4-yl)amino)quinazolin-6-yl)phenyl)-3-(3-(trifluoromethyl)phenyl)urea]",6.6 ± 0.4 nM
2,"Cc1ccc(NC(=O)Nc2cc(C(C)(C)C)nn2-c2ccccc2)cc1-c1ccc2nc(Nc3cnn(C)c3)ncc2c1 [Compound S2, 1-(3-(tert-butyl)-1-phenyl-1H-pyrazol-5-yl)-3-(4-methyl-3-(2-((1-methyl-1H-pyrazol-4-yl)amino)quinazolin-6-yl)phenyl)urea]",9.7 ± 0.6 nM
3,"Cc1ccc(C(C)NC(=O)c2cccc(C(F)(F)F)c2)cc1-c1ccc2cnc(Nc3cnn(C)c3)nc2c1 (centres unmarked) [Compound S4, N-(1-(4-methyl-3-(2-((1-methyl-1H-pyrazol-4-yl)amino)quinazolin-7-yl)phenyl)ethyl)-3-(Trifluoromethyl)benzamide]",4.1 ± 0.1 nM
4,"CCC(NC(=O)c1cccc(C(F)(F)F)c1)c1ccc(C)c(-c2ccc3nc(Nc4cnn(C)c4)ncc3c2)c1 (centres unmarked) [Compound S6, N-(1-(4-methyl-3-(2-((1-methyl-1H-pyrazol-4-yl)amino)quinazolin-6-yl)phenyl)propyl)-3-(trifluoromethyl)benzamide]",5 ± 0.5 nM
5,"Cc1ccc(C(=O)NCc2cccc(C(F)(F)F)c2)cc1-c1ccc2nc(Nc3cnn(C)c3)ncc2c1 [Compound S7, 4-methyl-3-(2-((1-methyl-1H-pyrazol-4-yl)amino)quinazolin-6-yl)-N-(3-(trifluoromethyl)benzyl)benzamide]",1.3 ± 0.2 nM
6,"Cc1ccc(NC(=O)C(C)c2cccc(C(F)(F)F)c2)cc1-c1ccc2nc(Nc3cnn(C)c3)ncc2c1 (centres unmarked) [Compound S8, N-(4-methyl-3-(2-((1-methyl-1H-pyrazol-4-yl)amino)quinazolin-6-yl)phenyl)-2-(3-(trifluoromethyl)phenyl)propionamide]",2.2 ± 0.2 nM
7,"CC(C)c1ccc(C(=O)Nc2cccc(C(F)(F)F)c2)cc1-c1ccc2nc(Nc3cnn(C)c3)ncc2c1 [Compound S13, 4-isopropyl-3-(2-((1-methyl-1H-pyrazol-4-yl)amino)quinazolin-6-yl)-N-(3-(trifluoromethyl)phenyl)benzamide]",5.4 ± 0.4 nM
8,"Cn1cc(Nc2ncc3cc(-c4cc(C(=O)Nc5cccc(C(F)(F)F)c5)ccc4C4CC4)ccc3n2)cn1 [Compound S14, 4-cyclopropyl-3-(2-((1-methyl-1H-pyrazol-4-yl)amino)quinazolin-6-yl)-N-(3-(trifluoromethyl)phenyl)benzamide]",4.3 ± 0.7 nM
9,"CC(C(=O)Nc1ccc(C2CC2)c(-c2ccc3nc(Nc4cnn(C5CC5)c4)ncc3c2)c1)c1cccc(C(F)(F)F)c1 (centres unmarked) [Compound S17, N-(4-cyclopropyl-3-(2-((1-cyclopropyl-1H-pyrazol-4-yl)amino)quinazolin-6-yl)phenyl)-2-(3-(trifluoromethyl)phenyl)propionamide]",1.7 ± 0.3 nM
10,"Cc1ccc(C(C)NC(=O)c2cccc(C(C)(C)C#N)c2)cc1-c1ccc2nc(Nc3cnn(C4CC4)c3)ncc2c1 (centres unmarked) [Compound S20, 3-(2-cyanopropane-2-yl)-N-(1-(3-(2-((1-cyclopropyl-1H-pyrazol-4-yl)amino)quinazolin-6-yl)-4-methylphenyl)ethyl)benzamide]",5.6 ± 0.3 nM

# More lines, now with the values ahead:
row,IC50,Compound
1,2.9 ± 0.8 nM,"Cc1ccc(C(=O)NC(C)c2cccc(C(F)(F)F)c2)cc1-c1ccc2nc(Nc3cnn(C)c3)ncc2c1 (centres unmarked) [Compound S5, 4-Methyl-3-(2-((1-methyl-1H-pyrazol-4-yl)amino)quinazolin-6-yl)-N-(1-(3-(trifluoromethyl)phenyl)ethyl)benzamide]"
2,2.7 ± 0.1 nM,"Cc1ccc(C(C)C(=O)Nc2cccc(C(F)(F)F)c2)cc1-c1ccc2nc(Nc3cnn(C4CC4)c3)ncc2c1 (centres unmarked) [Compound S9, 2-(3-(2-((1-cyclopropyl-1H-pyrazol-4-yl)amino)quinazolin-6-yl)-4-methylphenyl)-N-(3-(trifluoromethyl)phenyl)propionamide]"
3,8.7 ± 1.1 nM,"Cc1ccc(C(C)NC(=O)Nc2cccc(C(F)(F)F)c2)cc1-c1ccc2nc(Nc3cnn(C)c3)ncc2c1 (centres unmarked) [Compound S27, 1-(1-(4-methyl-3-(2-((1-methyl-1H-pyrazol-4-yl)amino)quinazolin-6-yl)phenyl)ethyl)-3-(3-(trifluoromethyl)phenyl)urea]"
4,13.5 ± 7.2 nM,C[C@@H](NC(=O)c1ccc(C2CC2)c(-c2ccc3cnc(Nc4cnn(C5CC5)c4)nc3c2)c1)c1cccc(C(F)(F)F)c1 [Compound S37]

# Same assay, conditions: read-out: DDR2 Inhibition rate at 0.1 μM
row,Compound,inhibition at 0.1 µM
1,Cc1nc(C(C)NC(=O)c2ccc(C3CC3)c(-c3ccc4nc(Nc5cnn(C6CC6)c5)ncc4c3)c2)cs1 (centres unmarked) [Compound S44],72.9%
2,O=C(NC1CCc2c1cccc2C(F)(F)F)c1ccc(C2CC2)c(-c2ccc3nc(Nc4cnn(C5CC5)c4)ncc3c2)c1 (centres unmarked) [Compound S46],47.7%

# More lines, now with the values ahead:
row,inhibition at 0.1 µM,Compound
1,57.6%,CCN1CCN(Cc2cc(C(C)NC(=O)c3ccc(C4CC4)c(-c4ccc5nc(Nc6cnn(C7CC7)c6)ncc5c4)c3)cc(C(F)(F)F)c2)CC1 (centres unmarked) [Compound S43]
2,68.4%,CC(NC(=O)c1ccc(C2CC2)c(-c2ccc3nc(Nc4cnn(C5CC5)c4)ncc3c2)c1)c1cc(C(F)(F)F)ccn1 (centres unmarked) [Compound S45]

# Test system: pulmonary fibrosis induced by bleomycin in mice
# Experiment: mRNA levels of fibrosis-related markers in lung tissue (qRT-PCR)
# Format: in vivo, mouse
# Conditions: 30 mg/kg
# Procedure: About 30 mg of cryopreserved lung tissue was weighed and homogenized and lysed by adding 200 μL of Trizol (Takara, 9109 #). The fluid after the lysis in the well was collected by the RNA sterilization-grade pipette tip and transferred to the corresponding sterile EP tube. […] of chloroform was added, shaken vigorously for 30 sec, and centrifuged for 15 minutes in a centrifuge at 4° C. at 12000 rpm. The upper aqueous layer was transferred to a new EP tube, an equal volume of isopropanol was used to precipitate the RNA in the aqueous phase, and the tube was allowed to stand at −20° C. for more than 1 hr. And then the tube was centrifuged for 15 min at 4° C. at 12000 rpm, and the supernatant was discarded. 75% ethanol was added to wash the RNA pellet, and then the tube was centrifuged for 15 min at 4° C. at 12000 rpm, and the supernatant was discarded. The tube was placed at room temperature for 10-20 min to dry the RNA pellet. 25-200 μL of RNase-free water was added for dissolution and stored at −80° C.
# PrimeScript™ RT Master Mix (Takara, RR036A) was selected for mRNA reverse transcription. Please refer to the instructions for the system. In short, 1 μg of mRNA was added to a 20 μL system, mixed and then kept at a constant temperature in a 37° C. water bath for 15 minutes, and then the enzyme was inactivated at 85° C. for 5 seconds. After centrifugation, double distilled water was used to dilute 10 times.
# Q-PCR technology used 2×SYBR Green qPCR Master Mix (B21202, Biomake), and the reaction system could be prepared according to the instruction (10 μL of 2×SYBGreen, 8.8 μL of cDNA template, 1.2 μL of 5 μM primer Mix). The reaction conditions are: pre-denaturation at 95° C. for 5 min, denaturation at 95° C. for 30 sec, annealing at 60° C. for 30 sec, and extension at 72° C. for 30 sec, the number of reaction cycles is 40 cycles.
# The experiment used qRT-PCR technology to determine the mRNA levels of fibrosis-related markers in lung tissue.
# The experimental method was the same as that for the evaluation of the mRNA levels of inflammatory cytokines.
Compound,reduction of expression (mRNA) of Collagen1-α1,reduction of expression (mRNA) of TGF-β1,reduction of expression (mRNA) of α-SMA
Cc1ccc([C@H](C)NC(=O)c2cccc(C(F)(F)F)c2)cc1-c1ccc2nc(Nc3cnn(C4CC4)c3)ncc2c1 [Compound S11-A],about 50%,about 50%,about 50%
